Source: PMC7586386, “Discovery of Covalent Inhibitors Targeting the Transcriptional Enhanced Associate Domain Central Pocket” (Journal of Medicinal Chemistry, 2020)
Each block holds one compound with its values, some of them ahead of it.

Legend:
hTEAD4 (nonacylated) [1] = molecular target: T1, hTEAD4 (nonacylated) (Homo sapiens, UniProt Q15561); experiment: Thiol conjugation assay (CPM probe); assay type: binding; conditions: for fold reduction of TEAD binding in the thiol conjugation assay: relative to 19; for Inhibition of the CPM fluorescence signal increase: assay validation with known central pocket binders
T1 construct: N-terminal His6-tagged hTEAD4^217–434 was subcloned; made in house; host or cells: Escherichia coli BL21-CodonPlus (DE3)-RIPL
T1 sequence (Q15561 217-434): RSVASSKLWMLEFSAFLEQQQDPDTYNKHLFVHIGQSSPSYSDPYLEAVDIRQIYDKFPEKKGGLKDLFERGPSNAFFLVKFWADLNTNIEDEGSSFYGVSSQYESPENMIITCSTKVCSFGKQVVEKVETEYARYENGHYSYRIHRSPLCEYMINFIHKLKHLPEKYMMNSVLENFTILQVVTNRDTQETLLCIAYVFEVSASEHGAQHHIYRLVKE
Procedure: To serially diluted solutions of the tested compounds in 5 μL of assay buffer [HEPES (25 mM) and NaCl (150 mM) pH 6.5], freshly prepared 5 μL of 0.45 μM protein solution was added and incubated at room temperature for 10 min, followed by addition of 5 μL of 0.45 μM CPM solution, giving a 15 μL final assay volume, 150 nM protein, and 150 nM CPM. The assay plate was shaken at room temperature for 1 h before measuring the fluorescence (Ex/Em: 380/470 nm). Compound 19 was used as an internal standard to determine 100% inhibition.
A library of 14,000 compounds was screened in 1536-well plates using pH 6.5 MES buffer. To the preincubated solution of nonacylated hTEAD4 (0.15 μM final concentration) and compound solution (12.5 μM final concentration), CPM (0.15 μM final concentration) was added, and the assay plates were incubated at room temperature for 50 min before measuring the fluorescence (Ex/Em: 360/465 nm) using Spectramax Paradigm (Molecular Devices). Z′ = 0.6–0.8 (10-plates).

hTEAD4 (nonacylated) [2] = molecular target: T1, hTEAD4 (nonacylated); experiment: Saturation binding of FITC-palmitate (FP); conditions: 10 nM tracer
Procedure: To a serially diluted solution of nonacylated hTEAD4 in 12 μL of assay buffer [HEPES (25 mM) and NaCl (150 mM) pH 6.5], 8 μL of 25 nM FITC-palmitate solution was added, giving 20 μL final assay volume with a 10 nM tracer. The assay plate was incubated at room temperature for 1 h before measuring FP (Ex/Em: 485/535 nM).

hTEAD4 (nonacylated) [3] = molecular target: T1, hTEAD4 (nonacylated); experiment: Differential scanning fluorimetry; assay type: binding; conditions: 20 μM protein, 80 μM inhibitor
Procedure: Nonacylated hTEAD4 (20 μM) was incubated in the absence or presence of inhibitors (80 μM) at 25 °C for 10 min. Then, SYPRO orange (Sigma-Aldrich) at a final concentration of 5× was added and the mixture was heated at a ramp rate of 1 °C/min in a qPCR machine (Applied Biosystems). The derivative of the SYPRO orange fluorescent intensity is plotted as a function of temperature.

[4] = molecular target: T2, hTEAD4 (nonacylated) with human YAP50–100 (Homo sapiens, UniProt Q15561); experiment: FP-based competitive TEAD–YAP interaction assay (FITC-hYAP50–100); assay type: binding; conditions: versus 19
T2 construct: N-terminal His6-tagged hTEAD4^217–434 was subcloned; made in house; host or cells: Escherichia coli BL21-CodonPlus (DE3)-RIPL (TEAD4); solid-phase synthesis (YAP peptide)
T2 sequence (Q15561 217-434): as above
Procedure: All the TEAD–YAP binding experiments were performed in phosphate-buffered saline (PBS) (pH 7.5).
To serially diluted solution of the tested compounds in 5 μL of PBS, freshly prepared 5 μL of protein solution was added and incubated at room temperature for 10 min followed by addition of 5 μL of FAM-YAP^50–100 solution. The assay plate was shaken at room temperature for 1 h before measuring the FP (Ex/Em: 485/535 nm). Final protein and FAM concentrations are as follows (FAM/protein): hTEAD4 (nonacylated): 2 nM/5 nM, hTEAD4 (acylated): 3 nM/15 nM, mTEAD4_Cys360Ser: 10 nM/50 nM, and mTEAD4_Cys360Ala: 10 nM/50 nM.

TEAD target gene ANKRD1 = experiment: RT-qPCR of TEAD target gene expression in HEK293 cells; assay type: cell-based; conditions: 6 h
Procedure: HEK293 cells were treated with DMSO or the indicated compound for the indicated duration. RNA was extracted using the RNeasy Plus Mini Kit (QIAGEN, Hilden, Germany) following the manufacturer’s procedure. DNA was removed on the column by DNase digestion with the RNase-free DNase Set (QIAGEN, Hilden, Germany) according to the manufacturer’s instructions. Following the manufacturer’s protocol, cDNA templates were synthesized from 700 ng total RNA using the QuantiTect Reverse Transcription Kit (QIAGEN, Hilden, Germany).
The expression levels of the TEAD target gene ANKRD1 was assessed by real-time quantitative PCR. A total of 100 ng of cDNA was amplified using 500 nM gene-specific primers and SsoAdvanced Universal SYBR Green Supermix (Bio-Rad Laboratories, Feldkirchen, Germany) in a total volume of 10 μL for 50 cycles. All measurements were performed in both technical and biological triplicates using a CFX96 Touch Real-Time PCR Detection System (Bio-Rad Laboratories, Feldkirchen, Germany).
The sequences of primers for ANKRD1 were forward 5′-[…]-3′ and reverse 5′-[…]-3′. The sequences of primers for GAPDH were forward 5′-[…]-3′ and reverse 5′-[…]-3′.

[5] = Assay media stability (HPLC); assay type: physicochemical; conditions: MES buffer, pH 6.5, 1 h, rt
Procedure: The compounds were incubated in MES (25 mM), pH 6.5 buffer or HEPES (25 mM) and NaCl (150 mM) pH 6.5 buffer for an hour at room temperature before injecting into a reverse-phase HPLC system (ThermoScientific_Ultimate 3000) equipped with a C18 column (2/50 Nucleodur C18 gravity 1.8 μm von Macherey-Nagel).

hTEAD4 (nonacylated) [6] = molecular target: T1, hTEAD4 (nonacylated); experiment: Whole-protein ESI–MS of covalent modification; assay type: binding; conditions: 8 equiv of compound, 1 h, rt
Procedure: The protein solution (1 μL 5 μM) was injected to UPLC-MS (ThermoScientific_UltiMate 3000 LC coupled to a Velos Pro MS) through a desalting column (MassPREP Online desalting, 2.1 × 10 mm). For reactions, 1 μM of the protein was incubated at room temperature for 1 h with 8 equiv of the compound in HEPES (25 mM) and NaCl (150 mM) pH 6.5 buffer. Then, the mixture was centrifuged before injecting 5 μL. The deconvolution of m/z values was performed using Promass Xcalibur software.

mTEAD4 (nonacylated) = molecular target: T3, mTEAD4 (nonacylated) (Mus musculus, UniProt Q62296); experiment: 1H–15N HSQC NMR; assay type: binding; conditions: 0.5 mM compound, versus DMSO
T3 construct: made in house
T3 sequence (Q62296 210-427 limits assumed): as the sequence (Q15561 217-434) above, with V3I, Q19R, G35S, A48T, D67E, E91D, S96A, S142L counted along it
Procedure: The ^13C/^15N-labeled mTEAD4 was prepared following a protocol established earlier,[45] and the protein was deacylated as described above for hTEAD4. ^1H–^15N HSQC spectra in the presence of DMSO or the test compound (0.5 mM) were collected at 37 °C on a Bruker 600 MHz magnet equipped with a cryoprobe in 20 mM HEPES, pH 7.3 buffer containing 150 mM NaCl and 1 mM DTT. The spectra were processed and overlaid.

TEAD central pocket = molecular target: TEAD central pocket; set-up: method as in PMID 26592798; conditions: read-out: ITC Kd; cited from earlier work
hTEAD4 (nonacylated) [7] = molecular target: T1, hTEAD4 (nonacylated); experiment: FP-based competitive binding assay with FITC-palmitate tracer; conditions: relative to 19; for fold increase in the IC50 values: said of the IC50 values of both assays
Procedure: To serially diluted solution of the tested compounds in 5 μL assay buffer [HEPES (25 mM) and NaCl (150 mM), pH 6.5 buffer], freshly prepared 5 μL of 0.15 μM protein solution was added and incubated at room temperature for 10 min followed by 5 μL of 30 nM FITC-palmitate solution, giving 15 μL final assay volume, 50 nM protein, and 10 nM tracer. The assay plate was shaken at room temperature for 1 h before measuring the FP (Ex/Em: 485/535 nm).

[8] = set-up: method as in PMID 21164073; conditions: acidic 2-OH group; cited from earlier work

fold reduction of TEAD binding in the thiol conjugation assay (hTEAD4 (nonacylated) [1]): 100 fold
Compound: O=c1cc(CO)oc(C(Nc2ccccc2)C2CCCCC2)c1O (stereo not shown) [Compound 30, 2-(Cyclohexyl(phenylamino)methyl)-3-hydroxy-6-(hydroxymethyl)-4H-pyran-4-one]

Kd (hTEAD4 (nonacylated) [2]): 0.028 µM
Compound: CCCCCCCCCCCCCCCC(=O)NCCCOCCOCCOCCCNC(=S)Nc1ccc(-c2c3ccc(=O)cc-3oc3cc(O)ccc23)c(C(=O)O)c1 [Compound S4, 2-(6-Hydroxy-3-oxoi-3H-xanthen-9-yl)-5-(3-(15-oxo-4,7,10-trioxa-14-azatriacontyl)thioureido)benzoic Acid]

activity in the thiol conjugation assay (hTEAD4 (nonacylated) [1]): inactive | Tm shift (hTEAD4 (nonacylated) [3]): did not induce any change | fold lower activity in TEAD–YAP interaction assay [4]: > 100 fold | stability in assay medium [5]: stable | modification of the protein (whole-protein ESI–MS) (hTEAD4 (nonacylated) [6]): modification of TEAD was not observed | effect on 1H–15N HSQC spectrum (mTEAD4 (nonacylated)): did not induce a significant change
Compound: COc1c(C(Nc2ccccc2)c2ccccc2)oc(CO)cc1=O (stereo not shown) [Compound 45, 6-(Hydroxymethyl)-3-methoxy-2-(phenyl(phenylamino)methyl)-4H-pyran-4-one]
reduction of the mRNA level of ANKRD1 compared to the DMSO control (TEAD target gene ANKRD1): only a minimal effect

Compound: O=C(O)c1cccnc1Nc1cccc(C(F)(F)F)c1 [Compound 2, niflumic acid, reference compound]
Inhibition of the CPM fluorescence signal increase (hTEAD4 (nonacylated) [1]): inhibited the signal increase in a dose-dependent manner | Kd (TEAD central pocket): 28 µM

fold reduction of TEAD binding in the thiol conjugation assay (hTEAD4 (nonacylated) [1]): 100 fold
Compound: CC(C)C(Nc1ccccc1)c1oc(CO)cc(=O)c1O (stereo not shown) [Compound 31, 3-Hydroxy-6-(hydroxymethyl)-2-(2-methyl-1-(phenylamino)propyl)-4H-pyran-4-one]

Compound: O=C(CCl)c1ccccc1Nc1cccc(C(F)(F)F)c1 [Compound 3, reference compound]
Inhibition of the CPM fluorescence signal increase (hTEAD4 (nonacylated) [1]): inhibited the signal increase in a dose-dependent manner

fold increase in the IC50 values (hTEAD4 (nonacylated) [7]): more than 20 fold
Compound: O=c1cc(CO)oc(C(Nc2ncccn2)c2ccccc2)c1O (stereo not shown) [Compound 26, 3-Hydroxy-6-(hydroxymethyl)-2-(phenyl(pyrimidin-2-ylamino)methyl)-4H-pyran-4-one]

activity in the thiol conjugation assay (hTEAD4 (nonacylated) [1]): inactive
Compound: COc1c(C(Nc2ccccn2)c2ccccc2F)oc(CO)cc1=O (stereo not shown) [Compound 46, 2-((2-Fluorophenyl)(pyridin-2-ylamino)methyl)-6-(hydroxymethyl)-3-methoxy-4H-pyran-4-one]

fold reduction of TEAD binding in the thiol conjugation assay (hTEAD4 (nonacylated) [1]): 100 fold
Compound: O=c1cc(CO)oc(CNc2ccccc2)c1O [Compound 32, 3-Hydroxy-6-(hydroxymethyl)-2-((phenylamino)methyl)-4H-pyran-4-one]

Compound: CCCCCCCCCCCCCCCC(=O)O [palmitic acid, reference compound]
Inhibition of the CPM fluorescence signal increase (hTEAD4 (nonacylated) [1]): inhibited the signal increase in a dose-dependent manner

Compound: O=c1cc(CO)occ1O [kojic acid]
pKa [8]: 7.9

fold increase in the IC50 values (hTEAD4 (nonacylated) [7]): more than 20 fold | Tm shift (hTEAD4 (nonacylated) [3]): did not induce any change
Compound: O=c1cc(CO)oc(C(Nc2nccs2)c2ccccc2)c1O (stereo not shown) [Compound 27, 3-Hydroxy-6-(hydroxymethyl)-2-(phenyl(thiazol-2-ylamino)methyl)-4H-pyran-4-one]

fold lowering of inhibitory activity in the FP assay (hTEAD4 (nonacylated) [7]): 2–3 fold
Compound: O=c1cc(CO)oc(C(Nc2ccccc2)c2ccccn2)c1O (stereo not shown) [Compound 40, 3-Hydroxy-6-(hydroxymethyl)-2-((phenylamino)(pyridin-2-yl)methyl)-4H-pyran-4-one]

Compound: O=C(O)c1ccccc1Nc1cccc(C(F)(F)F)c1 [Compound 1, flufenamic acid, reference compound]
Inhibition of the CPM fluorescence signal increase (hTEAD4 (nonacylated) [1]): inhibited the signal increase in a dose-dependent manner | Kd (TEAD central pocket): 73 µM

ΔTm at 80 µM (hTEAD4 (nonacylated) [3]; read-out: Tm shift): -2 °C
Compound: O=c1cc(CO)oc(C(Nc2ccccn2)c2ccc(Br)cc2)c1O (stereo not shown) [Compound 42, 2-((4-Bromophenyl)(pyridin-2-ylamino)methyl)-3-hydroxy-6-(hydroxymethyl)-4H-pyran-4-one]

fold increase in the IC50 values (hTEAD4 (nonacylated) [7]): more than 20 fold
Compound: O=c1cc(CO)oc(C(Nc2nc3ccccc3[nH]2)c2ccccc2)c1O (stereo not shown) [Compound 28, 2-(((1H-Benzo[d]imidazol-2-yl)amino)(phenyl)methyl)-3-hydroxy-6-(hydroxymethyl)-4H-pyran-4-one]
